Laboratory results: patent US20140256644A1, “Treatment of Muscular Conditions and Muscular Dystrophies” (priority 2011, published 2014)
“Also recorded” adds a separate entry of the source. Where no end group is shown, it is not given here.

Tests used:
adult mdx FDB myofibers [1] = assay: Stretch-induced ROS production (X-ROS), DCF fluorescence, 10% axial stretch (MuST); type: cell-based, mouse; conditions: adult mdx FDB fibers, 10% stretch, gp91dsTAT 2 μM, fulvene-5 5 μM, L-NAME 1 mM, colchicine, nocodozole, latrunculin A 10 μM
Protocol: (§1) After euthanasia by CO2 inhalation, flexor digitorum brevis (FDB) muscle was harvested bilaterally and incubated in DMEM with 1 μl/ml gentamicin, and 0.4% collagenase A (Roche Applied Science, Indianapolis, Ind., USA) as described. Single intact myofibers were isolated by gentle trituration. The fibers were imaged and/or fixed for immunolabeling within an 8-h period (unless indicated), thus avoiding morphological changes that can occur in FDB fibers that are cultured for a prolonged period.
All experiments were performed in custom rotating glass-bottom chamber (Four-hour Day Foundation, Towson, Md.) equipped with bath perfusion and mounted on BioRad Radiance fluorescent laser scanning confocal attached to an Olympus IX-70 inverted microscope (Olympus Corp., Centre Valley, Pa.). Cells were attached using micro-tweezers coated with the biological adhesive, MyoTak (Ionoptix, Milton, Mass.) and connected to a high-sensitivity force transducer (KG7) equipped with an anti-oscillation filter and a piezo-electric length controller (World Precision Instruments, Sarasota, Fla.). The force transducer and length controller were mounted on folded motorized micromanipulators (Siskiyou, Grants Pass, Oreg.) allowing to place the tweezers above the cell of interest. The rotating chamber, the tweezer-equipped force transducer and length controller and the micromanipulators formed the Muscle Stretch Tool (MUST).
(§2) Myofibers were attached at both ends by gently closing the MyoTak-coated tweezers without compressing the cell membrane and then lifting the cell from the bottom of the chamber. Cell sarcomere length was monitored using a High-speed Video Sarcomere Length camera (Aurora Scientific, Aurora, ON, CAN) and the voltage into the length controller was adjusted to produce a stretch equal to 10% of resting sarcomere length. The tension signal from the force transducer and positional output from the length controller were recorded at 1 kHz using a 600A data acquisition system from Aurora.
ROS was measured using 6-carboxy-2″,7″-dichlorodihydrofluorescein diacetate (DCFH-DA) (Invitrogen, Carlsbad, Calif.) in dimethyl sulfoxide (DMSO). FDB fibers were suspended in HEPES-buffered Ringer's solution containing (in mM): 140 NaCl, 4.0 KCl, 1.0 MgSO4, 5.0 NaHCO3, 10.0 glucose, 10.0 HEPES at pH 7.3 and incubated with Ringer's solution containing DCFH-DA (10 μM) for 30 minutes at room temperature. DCF-loaded cells were mounted on MUST and imaged using confocal line-scanning microscopy at 2 ms/line with very low laser intensity to prevent artifactual amplification of the signal due to light oxidation. DCF fluorescence signals were processed as described (16). The NOX2 specific inhibitor gp91dsTAT (2 μM), NOX inhibitor fulvene-5 (5 μM) and nitric oxide synthase inhibitor L-NAME (1 mM) was used to verify the source of ROS. Interrogation of cytoskeletal involvement in stretch dependent ROS or Ca^2+ influx was done with pharmacological methods.

wild-type (WT) mice = assay: In vivo eccentric contraction-induced injury in wild-type mice (gastrocnemius); parameters: species or system mouse
Protocol: WT mice were treated in vivo with either vehicle, or a combination of colchicine and apocynin. Following treatment, the gastrocnemius muscle was assayed for susceptibility to in vivo eccentric contraction injury.
(§3) Anaesthetized mice (isoflurane) were placed on a thermostatically controlled table, the knee was fixed with a pin and the foot was firmly fixed to a footplate on the motor shaft. Contraction was elicited by percutaneous electrical stimulation of the sciatic nerve. Optimal isometric tetanic torque was determined with increasing current with a minimum of 30 s between each contraction to avoid fatigue. Eccentric contractions at maximal isometric torque (0.2 ms pulse train at 100 Hz) were assayed for the resistance to muscle damage.
Eccentric contractions were achieved by lengthening the muscle during maximal contraction. This was achieved by translating the footplate 30° at a velocity of 40 mm/s following the first 200 msec of the isometric contraction. This protocol consisted of 20 eccentric contractions with 1 minute pauses in between. The decrease in the peak isometric force prior to the eccentric phase was taken as an indication for muscle damage.

adult mdx mice [2] = assay: In vitro isometric contraction-induced injury of EDL muscle after in vivo treatment; parameters: species or system mouse; conditions: mdx mice treated in vivo (colchicine 1 mg/kg IP 4 hours; apocynin 3 mg/kg IP 3 days), 20 isometric contractions
Protocol: Following CO2 asphyxiation and cervical dislocation, single EDL muscles were surgically excised with ligatures at each tendon (5-0 silk suture) and mounted in an in vitro bath between a fixed post and force transducer (Aurora 300B-LR) operated in isometric mode. The muscle was maintained in physiological saline solution and maintained at 30° C. under aeration with 95 O2/5 CO2 (%) throughout the experiment. Resting tension, muscle length and stimulation current were iteratively adjusted for each muscle to obtain optimal twitch force. During a 5 minute equilibration, single twitches were elicited at every 30 seconds with electrical pulses (0.5 msec) through platinum electrodes running parallel to the muscle. The injury protocol used to induce a force deficit (39) consisted of 20 maximum isometric contractions (1 sec at 100 Hz) separated by 1 minute. The absolute isometric force of each muscle during the contraction protocol was normalized to the maximum isometric force (Po) produced by the muscle during the 20-contraction protocol.

adult mdx mice [3] = assay: In vivo eccentric contraction-induced injury in mdx; conditions: for eccentric contraction induced force loss: colchicine 1 mg/kg IP 4 hours or apocynin 3 mg/kg IP 3 days, 20 eccentric contractions; for eccentric contraction induced force drop (FIG. 13): dimethylaminoparthenolide 50 mg/kg via gavage per day/3 days, Gp91ds-TAT 5 ug/g body weight, 2 doses one day apart
Protocol: as §3
Eccentric contractions were achieved by lengthening the muscle during maximal contraction. This was achieved by translating the footplate 30° at a velocity of 40 mm/s following the first 200 msec of the isometric contraction. This protocol consisted of 20 eccentric contractions with 1 minute pauses in between. The decrease in the peak isometric force prior to the eccentric phase was taken as an indication for muscle damage. To test the role of X-ROS in the functional status of mdx muscle, adult mdx mice were treated with either colchicine (1 mg/kg IP; 4 hours) or apocynin (3 mg/kg IP; 3 days) in vivo to reduce X-ROS signaling followed by a contraction protocol to produce mechanical stress.

NOX = molecular target: T1, NOX (Homo sapiens, UniProt P04839); conditions: in muscle; apocynin or its oxidation products; cited from earlier work
T1 construct: host or cells: muscle
T1 sequence (P04839 1-570): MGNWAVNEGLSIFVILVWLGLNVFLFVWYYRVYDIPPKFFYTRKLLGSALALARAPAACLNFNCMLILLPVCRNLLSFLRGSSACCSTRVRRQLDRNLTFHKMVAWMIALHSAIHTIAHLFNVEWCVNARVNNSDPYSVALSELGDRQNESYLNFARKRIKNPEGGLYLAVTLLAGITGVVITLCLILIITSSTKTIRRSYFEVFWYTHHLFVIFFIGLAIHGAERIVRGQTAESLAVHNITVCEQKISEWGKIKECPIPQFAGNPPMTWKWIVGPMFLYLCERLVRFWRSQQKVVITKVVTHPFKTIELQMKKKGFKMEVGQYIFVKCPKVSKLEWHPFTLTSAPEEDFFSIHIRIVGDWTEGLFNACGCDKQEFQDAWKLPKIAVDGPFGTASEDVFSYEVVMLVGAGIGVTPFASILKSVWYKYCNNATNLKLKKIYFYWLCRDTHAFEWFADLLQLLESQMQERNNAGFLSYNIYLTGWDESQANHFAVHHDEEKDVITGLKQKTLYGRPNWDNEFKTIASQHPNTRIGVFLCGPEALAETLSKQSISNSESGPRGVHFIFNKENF

wild-type FDB fibers [4] = assay: Cytoskeletal stiffness by axial compression, atomic force microscopy; conditions: 10 μM, 2 hrs
[5] = test system: microtubule network in isolated FDB myofibers; assay: Fluorescence labeling and quantification of α-tubulin (microtubule network density); type: cell-based, mouse; conditions: for microtubule density (α-tubulin IHC): FDB fibers, colchicine 10 μM, taxol 10 μM; for microtubule density in isolated FDB myofibers: Angiotensin II treatment over 24 hrs
Protocol: Isolated intact FBDs were plated on ECM gel from Engelbreth-Holm-Swarm murine sarcoma coated imaging dishes (MatTek, Ashland, Mass.). Following treatment, plated myofibers were fixed with 2% paraformaldehyde, permeabilized with 0.1% Triton X-100 in phosphate buffered saline (PBS), blocked in 8% bovine serum albumin in PBS, and then labeled overnight with an antibody to α-tubulin conjugated to Alexa Fluor 488 (anti-mouse; Invitrogen, Carlsbad, Calif., USA). Digital images were obtained with a BioRad Radiance fluorescent laser scanning confocal attached to an Olympus IX-70 inverted microscope. Laser intensity was adjusted on a sample-to-sample basis to maximize amount of microtubules that are visualized. A 35-image Z-stack was taken at 0.5 μm interval and the most representative 9 frames were stacked together using ImageJ (NIH, USA) to form a composite image. Quantification was performed on the binary image representation of the 9-image stack. Background was subtracted uniformly and image was transformed into a binary using ImageJ unbiased binary function. A uniform region of interest was selected and mean intensity measured.

adult mdx FDB myofibers [6] = assay: Stretch-dependent sarcolemmal Ca2+ influx, fluo-4 fluorescence rate; type: cell-based, mouse; conditions: adult mdx FDB fibers, acute stretch, GsMTx4 2.5 μM, colchicine 10 μM
Protocol: as §1, with “period. […]” for “period.”
as §2
Similar to DCF measurements, FDBs were suspended in Ringer's solution containing 5 μM fluo-4-AM (Invitrogen, Carlsbad, Ca) for 30 minutes at room temperature. […] Fluo-4 signal slopes before stretch and after were measured.

young WT muscle cells = assay: Stretch Ca2+ entry in young fibers after increasing microtubule density; type: cell-based, mouse; conditions: young WT treated with taxol
Protocol: Similar to DCF measurements, FDBs were suspended in Ringer's solution containing 5 μM fluo-4-AM (Invitrogen, Carlsbad, Ca) for 30 minutes at room temperature. Fluo-4-loaded cells were mounted on MUST and imaged using confocal line-scanning microscopy at 2 ms/line. Fluo-4 signal slopes before stretch and after were measured.

[7] = test system: young wild-type and young mdx FDB muscle fibers; assay: Stretch-induced X-ROS in young fibers after increasing microtubule density; type: cell-based, mouse; conditions: young wild-type or young mdx fibers, taxol 10 μM
Protocol: All experiments were performed in custom rotating glass-bottom chamber (Four-hour Day Foundation, Towson, Md.) equipped with bath perfusion and mounted on BioRad Radiance fluorescent laser scanning confocal attached to an Olympus IX-70 inverted microscope (Olympus Corp., Centre Valley, Pa.). Cells were attached using micro-tweezers coated with the biological adhesive, MyoTak (Ionoptix, Milton, Mass.) and connected to a high-sensitivity force transducer (KG7) equipped with an anti-oscillation filter and a piezo-electric length controller (World Precision Instruments, Sarasota, Fla.). […]
as §2
ROS was measured using 6-carboxy-2″,7″-dichlorodihydrofluorescein diacetate (DCFH-DA) (Invitrogen, Carlsbad, Calif.) in dimethyl sulfoxide (DMSO). […] DCF fluorescence signals were processed as described (16). […]

C2C12 myotubes = assay: Microtubule subunit content in myotubes; type: cell-based
Piezo1 = conditions: cited from earlier work
wild-type FDB fibers [8] = assay: Stretch activated calcium influx, Mn quench assay; conditions: parthenolide 10 uM 2 hrs, Gp91ds-TAT 1 uM 30 minutes
Piezo2 = Piezo2 (Homo sapiens, UniProt Q9H5I5); conditions: cited from earlier work

Sequence of Piezo1 (Q92508 whole entry, species assumed): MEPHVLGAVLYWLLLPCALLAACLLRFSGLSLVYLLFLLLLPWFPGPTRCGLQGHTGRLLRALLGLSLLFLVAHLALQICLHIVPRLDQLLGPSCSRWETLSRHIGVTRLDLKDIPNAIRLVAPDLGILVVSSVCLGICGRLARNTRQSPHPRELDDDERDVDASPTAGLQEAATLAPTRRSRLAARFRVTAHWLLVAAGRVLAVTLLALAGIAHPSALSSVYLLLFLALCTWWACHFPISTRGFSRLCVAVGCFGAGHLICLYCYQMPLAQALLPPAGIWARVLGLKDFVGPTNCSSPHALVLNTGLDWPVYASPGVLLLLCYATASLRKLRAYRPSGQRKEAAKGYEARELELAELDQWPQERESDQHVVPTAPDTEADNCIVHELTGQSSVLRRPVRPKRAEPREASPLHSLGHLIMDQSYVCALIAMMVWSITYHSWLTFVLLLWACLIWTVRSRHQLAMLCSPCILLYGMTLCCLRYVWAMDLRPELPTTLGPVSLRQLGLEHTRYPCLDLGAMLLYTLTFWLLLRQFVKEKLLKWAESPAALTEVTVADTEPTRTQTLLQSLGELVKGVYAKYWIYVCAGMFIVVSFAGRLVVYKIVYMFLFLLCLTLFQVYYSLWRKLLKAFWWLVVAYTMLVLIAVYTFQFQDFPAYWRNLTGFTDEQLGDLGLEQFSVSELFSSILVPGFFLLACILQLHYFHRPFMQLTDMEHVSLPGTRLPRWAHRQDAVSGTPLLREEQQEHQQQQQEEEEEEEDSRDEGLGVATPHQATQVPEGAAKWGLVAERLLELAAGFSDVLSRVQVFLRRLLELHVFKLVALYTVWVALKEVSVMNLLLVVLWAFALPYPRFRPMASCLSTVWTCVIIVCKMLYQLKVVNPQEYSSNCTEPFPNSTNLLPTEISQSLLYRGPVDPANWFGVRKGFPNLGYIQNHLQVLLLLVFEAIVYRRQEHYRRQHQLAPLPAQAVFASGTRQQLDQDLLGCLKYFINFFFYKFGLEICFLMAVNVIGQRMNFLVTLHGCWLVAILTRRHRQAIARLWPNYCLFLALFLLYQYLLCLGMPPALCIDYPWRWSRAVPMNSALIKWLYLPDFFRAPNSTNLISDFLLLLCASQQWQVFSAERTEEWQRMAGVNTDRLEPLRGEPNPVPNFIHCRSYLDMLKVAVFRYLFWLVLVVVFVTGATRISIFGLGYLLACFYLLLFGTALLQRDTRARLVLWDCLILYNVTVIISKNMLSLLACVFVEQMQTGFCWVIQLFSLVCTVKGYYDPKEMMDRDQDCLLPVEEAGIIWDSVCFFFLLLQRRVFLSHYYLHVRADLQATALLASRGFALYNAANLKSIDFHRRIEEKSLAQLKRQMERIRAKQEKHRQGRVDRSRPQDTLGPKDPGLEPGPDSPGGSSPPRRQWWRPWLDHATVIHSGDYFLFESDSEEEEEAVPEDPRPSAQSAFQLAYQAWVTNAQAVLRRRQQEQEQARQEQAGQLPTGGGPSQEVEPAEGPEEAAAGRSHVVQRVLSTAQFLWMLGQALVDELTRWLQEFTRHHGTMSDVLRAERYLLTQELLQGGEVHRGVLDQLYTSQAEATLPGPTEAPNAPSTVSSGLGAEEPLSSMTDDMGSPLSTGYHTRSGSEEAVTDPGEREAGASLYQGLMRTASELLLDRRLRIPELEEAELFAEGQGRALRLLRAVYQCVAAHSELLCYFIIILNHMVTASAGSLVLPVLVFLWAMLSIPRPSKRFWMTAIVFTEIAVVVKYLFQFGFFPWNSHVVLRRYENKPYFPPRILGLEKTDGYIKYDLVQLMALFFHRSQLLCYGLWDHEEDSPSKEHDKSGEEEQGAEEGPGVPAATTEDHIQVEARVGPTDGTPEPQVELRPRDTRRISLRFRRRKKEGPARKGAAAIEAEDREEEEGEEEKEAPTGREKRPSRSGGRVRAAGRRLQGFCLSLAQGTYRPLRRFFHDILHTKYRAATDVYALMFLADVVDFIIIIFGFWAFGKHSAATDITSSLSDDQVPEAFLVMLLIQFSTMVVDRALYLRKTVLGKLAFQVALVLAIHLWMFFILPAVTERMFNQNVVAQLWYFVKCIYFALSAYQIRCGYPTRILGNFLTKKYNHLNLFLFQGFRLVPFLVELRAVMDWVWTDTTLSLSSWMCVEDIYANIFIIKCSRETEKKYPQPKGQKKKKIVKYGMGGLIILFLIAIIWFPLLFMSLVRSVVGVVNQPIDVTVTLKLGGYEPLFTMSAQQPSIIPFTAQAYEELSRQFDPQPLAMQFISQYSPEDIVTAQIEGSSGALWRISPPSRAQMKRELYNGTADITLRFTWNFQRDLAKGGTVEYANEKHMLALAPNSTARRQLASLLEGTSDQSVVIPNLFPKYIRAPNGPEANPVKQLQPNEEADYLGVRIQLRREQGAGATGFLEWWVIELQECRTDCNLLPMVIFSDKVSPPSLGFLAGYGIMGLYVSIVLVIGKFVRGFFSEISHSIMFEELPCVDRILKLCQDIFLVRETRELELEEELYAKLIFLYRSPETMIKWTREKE

CCN(CC)CCCC(C)Nc1nc(C)cc(Nc2ccc3nc(C)cc(N)c3c2)n1 (racemic) [Rac1 inhibitor]
stretch-induced ROS production (X-ROS) (adult mdx FDB myofibers [1]): effective at abrogating X-ROS; also recorded: ameliorated the stretch-induced ROS production

COC(=O)[C@@H](N)CCCNC(=N)N[N+](=O)[O-] [L-NAME]
stretch-induced ROS production (X-ROS) (adult mdx FDB myofibers [1]): had no effect

COc1cc(C(C)=O)ccc1O [apocynin]
eccentric contraction induced force drop in wild-type mice (wild-type (WT) mice; WT mice, gastrocnemius, 18 eccentric contractions): significantly decreased the eccentric contraction induced force loss
isometric contraction induced force loss (adult mdx mice [2]): significant protection from force loss; also recorded: significantly decreased the isometric contraction induced force loss
eccentric contraction induced force loss (adult mdx mice [3]): significantly ameliorated the contraction induced force drop; also recorded: significant protection from force loss; also recorded: significantly reduced contraction induced force loss
translocation of cytosolic p47phox and p67phox proteins / inactivation of NOX (NOX): inhibit translocation

COc1cc2c(c(OC)c1OC)-c1ccc(OC)c(=O)cc1[C@@H](NC(C)=O)CC2 [colchicine]
cytoskeletal stiffness (wild-type FDB fibers [4]): equally effective at decreasing cytoskeletal stiffness
microtubule density (α-tubulin IHC) [5]: decreased; also recorded: ablated the majority of the cytoskeletal structure
stretch-induced ROS production (X-ROS) (adult mdx FDB myofibers [1]): prevented the increase in X-ROS; also recorded: little X-ROS; also recorded: ameliorated the stretch-induced ROS production
eccentric contraction induced force drop in wild-type mice (wild-type (WT) mice; mouse, in vivo): significantly decreased the eccentric contraction induced force loss
isometric contraction induced force loss (adult mdx mice [2]): significant protection from force loss; also recorded: significantly decreased the isometric contraction induced force loss
eccentric contraction induced force loss (adult mdx mice [3]): significantly ameliorated the contraction induced force drop; also recorded: significant protection from force loss; also recorded: significantly reduced contraction induced force loss
stretch dependent sarcolemmal Ca2+ influx (adult mdx FDB myofibers [6]): inhibited; also recorded: prevented; also recorded: little X-ROS and Ca^2+ entry; also recorded: ablated

C/C1=C\CC[C@@]2(C)O[C@@H]2[C@H]2OC(=O)[C@H](CN(C)C)[C@@H]2CC1 [dimethylaminoparthenolide]
isometric contraction induced force loss (adult mdx mice [2]): significantly decreased the isometric contraction induced force loss
eccentric contraction induced force drop (FIG. 13) (adult mdx mice [3]): ameliorated the force drop
eccentric contraction induced force drop (FIG. 13) (adult mdx mice [3]; listed as LC-1): reduced eccentric contraction induced force drop

C/C1=C/C(=O)O[C@@H]2C[C@@H](CC[C@H](C)/C=C\C=C\CC1)O[C@@](O)([C@@H]1CSC(=O)N1)C2 [latrunculin A]
stretch-induced ROS production (X-ROS) (adult mdx FDB myofibers [1]): had no effect
stretch-induced ROS production (X-ROS) (adult mdx FDB myofibers [1]; listed as latrunuculin A): no significant effect

CC(=O)O[C@H]1C(=O)[C@@]2(C)[C@H]([C@H](OC(=O)c3ccccc3)[C@]3(O)C[C@H](OC(=O)[C@H](O)[C@@H](NC(=O)c4ccccc4)c4ccccc4)C(C)=C1C3(C)C)[C@]1(OC(C)=O)CO[C@@H]1C[C@@H]2O [taxol]
microtubule density (α-tubulin IHC) [5]: increased
Ca2+ entry in young fibers (young WT muscle cells): exuberant X-ROS and Ca^2+ entry
X-ROS in young fibers [7]: exuberant X-ROS; also recorded: made X-ROS competent

Angiotensin II: angiotensin II, increases microtubule density
microtubule density in isolated FDB myofibers [5]: increases microtubule density
microtubule density in isolated FDB myofibers ([5]; listed as angiotensin II): densified the microtubule network
microtubule subunit content (C2C12 myotubes): increased microtubule subunit content

GsMTx4: mechano-sensitive (stretch activated) channel blocker (GCLEFWWKCNPNDDKCCRPKLKCSKLFKLCNFSF; ends and bridges not checked; cysteine pairing not given here; UniProt Q7YT39 47-80, looked up)
inhibition of Piezo1 channel (Piezo1): inhibited
stretch activated calcium influx (wild-type FDB fibers [8]): significantly reduced stretch activated Ca^2+ influx
inhibition of Piezo2 channel (Piezo2): inhibited
stretch dependent sarcolemmal Ca2+ influx (adult mdx FDB myofibers [6]): inhibited; also recorded: prevented; also recorded: ablated

fulvene-5
stretch-induced ROS production (X-ROS) (adult mdx FDB myofibers [1]): verified NOX2 as the source of the stretch dependent ROS
stretch-induced ROS production (X-ROS) (adult mdx FDB myofibers [1]; listed as Fulvene 5): effective at abrogating X-ROS
